Assay results from US7566808B2, “Management of ophthalmologic disorders, including macular degeneration” (President and Fellows of Harvard College, priority 2004, dated 2009).

Tests used:
Assay type in all cases: in vivo
Balb/c mice = experiment: 11-cis-retinal regeneration after bleaching in mice
Procedure: Animal Studies: Protocols were approved by the Standing Committee on Animal Care of Harvard Medical School, the Institutional Animal Care and Use Committee of Columbia University and complied with guidelines set forth by The Association for Research in Vision and Ophthalmology. 7 week old male Balb/c albino mice and 7 week old male Sprague-Dawley rats were from Charles River Breeding Laboratories and were housed in 12:12 h light:dark cycle. 8-10 week old Abcr null mutant mice (129/SV×C57BL/6J) were generated as formerly described (12,20) and Abcr^−/− and Abcr^+/+ mice were raised under 12-hour on-off cyclic lighting with an in-cage illuminance of 30-50 lux. In Abcr^−/− and Abcr^+/+ mice, Rpe65 was 9 sequenced as reported previously.
Similar experiments with inhibitors were also performed in Balb/c mice. Here again inhibition is observed, but the effects are less pronounced than in rats, both with 13-RA and the isoprenoid antagonists. The inhibition values are as follows: 13-RA (33±4%), TDT (35±2%), and TDH (24±6%). It is noteworthy that in rats the 11-cis chromophore is regenerated considerably more slowly than in mice.

Sprague Dawley rats = experiment: 11-cis-retinal regeneration after bleaching in rats; settings: for average inhibition of 11-cis-retinal regeneration: 50 mg/kg i.p. single injection, rats
Procedure: To establish whether recovery of the dark-adapted rod b-wave was retarded because of an effect on 11-cis-retinal synthesis we studied the effects of TDT on 11-cis-retinal regeneration in rats and mice. The 11-cis-retinal that is regenerated is essentially all bound to rhodopsin in rodents, so that measuring its level is equivalent to measuring the rhodopsin content. Initial experiments were performed on Sprague Dawley rats because similar experiments using 13-RA were previously carried out using these animals so that ready comparisons of potency and effectiveness can be made. […] Accordingly, in the current experiments, the rats were given single injections (i.p.) of TDT (TDH) (50 mg/kg in DMSO), 13-RA (50 mg/kg in DMSO), and DMSO alone. After injecting the analogs, the rats were dark adapted for 2 h, and then exposed to light that led to <10% of dark adapted 11-cis-retinal in these animals, compared to dark adapted controls (data not shown). After allowing the bleached rats to dark-adapt again for 30 min, the animals were sacrificed, and the regenerated 11-cis-retinal was determined as indicated in Methods. In these experiments, the amount of resynthesized 11-cis-retinal, the chromophore of rhodopsin, is measured by HPLC and compared to the amounts of all-trans-retinyl ester precursor.
These figures show results of HPLC analysis of extracted retinoids from drug treated rats. […] In FIG. 28A, the relative amounts of 11-cis-retinal-syn-oxime and all-trans-(cis)-retinyl esters are shown for the control (−13-RA) (top) and drug treated animals (bottom). In FIG. 28B, the corresponding data are shown for the TDT treated rats (top-control, bottom TDT treated). In this case, the ester pool in the drug treated rat is largely, if not exclusively, all-trans. […] Upon repetition of the experiments two further times the average inhibition values are as follows: 13-RA (78±2%), TDT (79±4%), and TDH (55±2%). These percent inhibition values are generated by comparing the integrated areas under the retinyl ester and 11-cis-retinal-syn-oxime peaks. (Materials and Methods).

[1] = system: Abca4+/+ (Rpe65 450Leu, pigmented, 129/SV×C57BL/6J) mice; experiment: ERG rod b-wave amplitude recovery after photo-bleaching; settings: 50 mg/kg i.p., 3 days after treatment
Procedure: Electroretinogram Determinations (ERG): Mice were dark-adapted overnight before all ERG experiments. To determine the acute effect of compounds under study, mice were given a single i.p. injection of […] Control (“untreated”) animals were injected with 25 uL of DMSO. Mice were anaesthetized with ketamine (80 mg/kg) and xylazine (5-10 mg/kg) and pupils were dilated with 1% phenylephrine and 1% cyclopentolate, followed by an exposure to 5000 lux bleaching light for 2 min.
The ERG was recorded from the cornea with a cotton wick saline electrodes for about 50 min immediately after bleaching. Subcutaneous 30 gauge needles on the forehead and trunk were used as reference and ground electrodes, respectively. The animals rested on a heater maintaining the body temperature at 37° C. The light stimulus was obtained from a ganzfeld stimulator having a stroboscope (PS33 Grass Instruments Inc., West Warwick, R.I.) removed from its housing and recessed above and behind the head of the mouse. The flash was diffused to cover the ganzfeld homogeneously. Maximum flash intensity was measured with a calibrated light meter (J16 Tektronics Instruments, Beaverton, Oreg.). Responses were averaged by a Macintosh computer-controlled data acquisition system (PowerLab, AD Instruments, Mountain View, Calif.) at a frequency of 0.1 Hz. […]
The same animals were subjected to ERG experiments according to exactly the same protocol 3 days later, except no (repeated) injection of compounds was performed.
Acute effects: In order to determine whether TDT and TDH have an effect on the visual cycle in vivo, the overnight dark-adapted Abca4^+/+ (Rpe65 450Leu, pigmented, 129/SV×C57BL/6J) mice received single (i.p.) injections of the two compounds at 50 mg/kg. […]
Results are averaged from three mice in each group with SD bars shown. Both isoprenoids delayed the recovery of dark-adapted visual responses to an extent similar to that of 13-RA as judged from dark-adapted ERG b-wave amplitudes recorded using dim light flashes delivered immediately before and at regular intervals after photo-bleaching.

effect on rod b-wave recovery [1]	Structure (SMILES)	inhibition of 11-cis-retinal regeneration (Balb/c mice)	average inhibition of 11-cis-retinal regeneration (Sprague Dawley rats)	inhibitory effect on 11-cis-retinal regeneration (Sprague Dawley rats; 50 mg/kg i.p., FIG. 28C)
substantial effect	CCCCCCCCCCCCCCCCNC(=O)/C=C(\C)CC/C=C(\C)CCC=C(C)C [TDH, 3,7,11-Trimethyl-dodeca-2,6,10-trienoic acid hexadecylamide]	24±6%	55±2%	less pronounced than with TDT
substantial effect	CCCCCCCCCCC(=O)/C=C(\C)CC/C=C(\C)CCC=C(C)C [TDT, 13,17,21-Trimethyl-docosa-12,16,20-trien-11-one]	35±2%	79±4%	–

Structure (SMILES)	effect on rod b-wave recovery [1]	inhibition of 11-cis-retinal regeneration (Balb/c mice)	average inhibition of 11-cis-retinal regeneration (Sprague Dawley rats)	inhibitory effect on 11-cis-retinal regeneration (Sprague Dawley rats; 50 mg/kg i.p., FIG. 28C)
CC1=C(/C=C/C(C)=C/C=C/C(C)=C\C(=O)O)C(C)(C)CCC1 [13-cis-retinoic acid, reference compound]	no sustained effect	33±4%	78±2%	–
